Assay [1] in a line: Antioxidant activity of compound assessed as trolox equivalent of AAPH radical scavenging activity at 2 to 4 uM preincubated for 15 mins followed by AAPH addition and measured every 2 mins for 90 mins by ORAC-fluorescein assay. Type of assay: functional. The settings on record: dose 2-4 µM, time 105.0 min.
The species entered for assay [2] is Homo sapiens. Briefly: Selectivity ratio of IC50 for recombinant HDAC8 (unknown origin) to IC50 for recombinant HDAC6 (unknown origin).
The target of assay [3] is T1, Histone deacetylase 8 (Homo sapiens, UniProt Q9BY41).
T1 sequence (Q9BY41 whole entry): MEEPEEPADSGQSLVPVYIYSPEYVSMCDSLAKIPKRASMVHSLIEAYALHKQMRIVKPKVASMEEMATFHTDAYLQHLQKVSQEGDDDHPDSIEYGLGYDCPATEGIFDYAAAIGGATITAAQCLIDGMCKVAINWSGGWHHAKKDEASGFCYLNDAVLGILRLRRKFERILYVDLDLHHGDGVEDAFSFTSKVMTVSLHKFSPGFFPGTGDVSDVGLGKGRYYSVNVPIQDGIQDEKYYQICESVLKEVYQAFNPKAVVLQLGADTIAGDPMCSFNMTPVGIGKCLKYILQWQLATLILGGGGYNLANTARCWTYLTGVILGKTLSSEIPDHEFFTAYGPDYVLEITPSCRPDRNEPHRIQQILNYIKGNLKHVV
Briefly: Inhibition of recombinant HDAC8 (unknown origin) using Boc-Lys(trifluoroacetyl)-AMC as substrate pre-incubated for 1 hr followed by substrate addition and measured after 2 hrs by fluorescence based assay.

Assay [4] is filed under the species Homo sapiens. Briefly: Selectivity ratio of IC50 for recombinant HDAC1 (unknown origin) to IC50 for recombinant HDAC6 (unknown origin).
The nature of assay [5]: Metal chelating activity assessed as compound-Cu2+ complex formation at 10 to 200 uM incubated for 2 mins followed by pyrocatechol violet addition and further incubated for 10 mins by microplate reader based assay. The settings on record: dose 10-200 µM, time 12.0 min.
The species named for assay [6] is Homo sapiens. Briefly: Selectivity ratio of IC50 for recombinant HDAC2 (unknown origin) to IC50 for recombinant HDAC6 (unknown origin).
Assay [7] concerns the target T2, Histone deacetylase 7 (Homo sapiens, UniProt Q8WUI4).
T2 sequence (Q8WUI4 whole entry): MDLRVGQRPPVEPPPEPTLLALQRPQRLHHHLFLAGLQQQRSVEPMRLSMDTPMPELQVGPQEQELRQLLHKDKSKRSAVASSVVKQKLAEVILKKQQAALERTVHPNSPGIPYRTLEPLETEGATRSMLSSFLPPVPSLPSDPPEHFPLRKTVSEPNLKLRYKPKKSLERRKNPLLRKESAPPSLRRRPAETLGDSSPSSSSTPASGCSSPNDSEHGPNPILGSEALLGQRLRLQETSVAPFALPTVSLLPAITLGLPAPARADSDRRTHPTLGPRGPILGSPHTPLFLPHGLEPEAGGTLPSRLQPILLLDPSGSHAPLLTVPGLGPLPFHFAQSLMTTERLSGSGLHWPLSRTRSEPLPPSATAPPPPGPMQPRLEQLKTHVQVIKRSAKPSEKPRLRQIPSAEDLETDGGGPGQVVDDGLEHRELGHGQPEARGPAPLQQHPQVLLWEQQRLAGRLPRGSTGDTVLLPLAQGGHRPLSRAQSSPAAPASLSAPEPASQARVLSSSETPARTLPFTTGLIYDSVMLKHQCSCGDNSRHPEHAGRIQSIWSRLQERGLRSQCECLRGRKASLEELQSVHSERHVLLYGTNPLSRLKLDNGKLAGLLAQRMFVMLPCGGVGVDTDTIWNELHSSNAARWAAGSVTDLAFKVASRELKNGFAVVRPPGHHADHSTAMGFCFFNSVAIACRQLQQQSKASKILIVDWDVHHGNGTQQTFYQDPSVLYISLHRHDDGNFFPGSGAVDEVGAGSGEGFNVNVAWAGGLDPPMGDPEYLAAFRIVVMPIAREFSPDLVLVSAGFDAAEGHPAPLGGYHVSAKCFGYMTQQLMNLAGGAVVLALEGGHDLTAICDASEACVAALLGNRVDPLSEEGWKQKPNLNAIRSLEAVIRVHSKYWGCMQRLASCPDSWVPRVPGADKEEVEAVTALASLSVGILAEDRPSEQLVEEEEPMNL
Briefly: Inhibition of recombinant HDAC7 (unknown origin) using Boc-Lys(trifluoroacetyl)-AMC as substrate pre-incubated for 1 hr followed by substrate addition and measured after 2 hrs by fluorescence based assay.

In assay [8] the test system is N9. Briefly: Immunomodulatory activity in LPS-induced mouse N9 microglial cells assessed as increase in TREM2 expression at 0.1 to 5 uM incubated for 24 hrs by Western blot analysis. Type of assay: functional. The settings on record: dose 0.1-5 µM. Background: Immunoblotting shows a protein as a band on a membrane.
Assay [9] has as its target Histone deacetylase 4 (Homo sapiens, UniProt P56524). Briefly: Inhibition of recombinant HDAC4 (unknown origin) using Boc-Lys(trifluoroacetyl)-AMC as substrate pre-incubated for 1 hr followed by substrate addition and measured after 2 hrs by fluorescence based assay.
Assay [10] has as its target Histone deacetylase 3 (Homo sapiens, UniProt O15379). Briefly: Inhibition of recombinant HDAC3 (unknown origin) using Boc-Lys(acetyl)-AMC as substrate preincubated for 1 hr followed by substrate addition and measured after 2 hrs by fluorescence based assay.

Calls of active or inactive are those of the source. The rule behind the calls is not given here.

Histone deacetylase 4, sequence (P56524 whole entry): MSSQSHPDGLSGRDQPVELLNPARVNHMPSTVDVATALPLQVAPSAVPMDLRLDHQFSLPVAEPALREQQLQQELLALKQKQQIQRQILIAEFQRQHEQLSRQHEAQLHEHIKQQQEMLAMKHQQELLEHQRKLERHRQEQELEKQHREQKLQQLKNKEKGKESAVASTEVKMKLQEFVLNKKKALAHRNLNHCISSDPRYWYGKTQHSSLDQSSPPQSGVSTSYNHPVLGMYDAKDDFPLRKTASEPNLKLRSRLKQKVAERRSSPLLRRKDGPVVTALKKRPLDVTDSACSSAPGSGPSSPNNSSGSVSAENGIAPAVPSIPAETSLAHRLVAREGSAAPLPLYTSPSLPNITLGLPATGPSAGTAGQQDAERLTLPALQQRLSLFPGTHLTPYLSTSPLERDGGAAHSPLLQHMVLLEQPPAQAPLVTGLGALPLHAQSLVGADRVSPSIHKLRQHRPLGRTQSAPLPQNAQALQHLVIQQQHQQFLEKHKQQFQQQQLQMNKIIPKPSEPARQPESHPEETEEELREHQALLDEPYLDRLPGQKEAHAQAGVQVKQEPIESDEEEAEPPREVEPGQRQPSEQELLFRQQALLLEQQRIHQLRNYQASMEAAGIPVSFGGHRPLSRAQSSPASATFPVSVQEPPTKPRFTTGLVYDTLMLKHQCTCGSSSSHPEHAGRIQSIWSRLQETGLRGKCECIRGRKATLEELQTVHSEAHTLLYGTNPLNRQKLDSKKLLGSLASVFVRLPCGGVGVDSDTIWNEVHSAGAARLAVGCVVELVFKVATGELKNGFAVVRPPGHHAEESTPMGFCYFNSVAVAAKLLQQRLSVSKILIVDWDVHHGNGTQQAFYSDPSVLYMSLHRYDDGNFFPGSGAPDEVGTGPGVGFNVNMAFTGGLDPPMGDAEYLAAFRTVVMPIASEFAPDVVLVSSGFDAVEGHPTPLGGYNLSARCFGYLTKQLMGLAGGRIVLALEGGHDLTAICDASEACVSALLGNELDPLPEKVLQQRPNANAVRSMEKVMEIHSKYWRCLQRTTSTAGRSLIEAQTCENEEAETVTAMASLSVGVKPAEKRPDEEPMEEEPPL
Histone deacetylase 3, sequence (O15379 whole entry): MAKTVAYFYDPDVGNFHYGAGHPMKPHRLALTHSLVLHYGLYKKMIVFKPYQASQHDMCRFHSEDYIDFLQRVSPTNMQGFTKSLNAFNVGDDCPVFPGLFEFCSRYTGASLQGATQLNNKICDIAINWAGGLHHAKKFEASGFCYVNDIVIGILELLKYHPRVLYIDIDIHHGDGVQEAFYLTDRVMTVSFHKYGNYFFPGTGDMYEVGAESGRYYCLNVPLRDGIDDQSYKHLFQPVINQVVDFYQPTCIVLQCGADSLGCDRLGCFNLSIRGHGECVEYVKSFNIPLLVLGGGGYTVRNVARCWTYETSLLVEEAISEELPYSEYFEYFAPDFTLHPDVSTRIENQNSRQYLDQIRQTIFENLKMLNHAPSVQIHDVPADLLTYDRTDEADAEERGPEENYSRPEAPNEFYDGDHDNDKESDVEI

For `COc1ccc2c(c1)c(CCNC(C)=O)cn2Cc1ccc(C(=O)NO)cc1`, the ORAC antioxidant capacity (Trolox equivalents) in [1] turned out to be 1.6. Moreover, the Ratio IC50 in [2] turned out to be 75; in [4] it was 23; in assay [6], 30. Besides, the IC50 in assay [3] is 838 nM; in [7], 1650 nM; in assay [9] (read-out: IC50) it was 3430 nM; in assay [9] (read-out: pIC50 (converted)), 3390 nM; in assay [10], 641 nM. Further, the result in [5] was Active. Further, the outcome in [8] was inactive.
In the case of `COc1ccc2[nH]cc(CCN(Cc3ccc(C(=O)NO)cc3)C(=O)/C=C/c3ccc(O)c(OC)c3)c2c1`, the ORAC antioxidant capacity (Trolox equivalents) in assay [1] was 2.1. Besides, the Ratio IC50 in assay [2] turned out to be 117; in [4] it was 25; in assay [6], 93. Also, the IC50 was 3590 nM in assay [3], more than 10000 nM in assay [7], more than 10000 nM in assay [9] (read-out: IC50) and 1610 nM in [10]. Further, the outcome in assay [5] and in assay [8] was Active.
